The source made the active and inactive calls. The rule behind the calls is not given here.
Columns and labels:
Mus musculus [1] = experiment: Prolongation of bleeding time in mouse at 30 uM/kg, po administered as single dose by tail excision method; format: ADME, organism-based; conditions: in vivo
Platelet [2] = experiment: Antiplatelet activity in human platelet-rich plasma assessed as inhibition of ADP-induced platelet aggregation treated for 5 mins prior to ADP challenge for 5 mins by turbidimetric method; format: functional, cell-free
Platelet [3] = experiment: Antiplatelet activity in human platelet-rich plasma assessed as inhibition of TRAP-induced platelet aggregation treated for 5 mins prior to TRAP challenge for 5 mins by turbidimetric method; format: functional, cell-free
Platelet [4] = experiment: (§1) Antiplatelet activity in human platelet-rich plasma assessed as inhibition of collagen-induced platelet aggregation treated for 5 mins prior to collagen challenge for 5 mins by turbidimetric method; format: functional, cell-free
[5] = as §1; format: functional, cell-free; conditions: for IC50: Homo sapiens, Platelet, Plasma
Platelet [6] = experiment: (§2) Antiplatelet activity in human platelet-rich plasma assessed as inhibition of U46619-induced platelet aggregation treated for 5 mins prior to U46619 challenge for 5 mins by turbidimetric method; format: functional, cell-free
[7] = as §2; format: functional, cell-free; conditions: for IC50: Homo sapiens, Platelet, Plasma
Mus musculus [8] = experiment: Antithrombotic activity in mouse assessed as protection against collagen-epinephrine-induced pulmonary thromboembolism at 30 uM/kg, po administered 60 mins prior to thrombotic challenge; format: functional
Platelet [9] = experiment: Antiplatelet activity in human platelet-rich plasma assessed as inhibition of ristocetin-induced platelet aggregation treated for 5 mins prior to ristocetin challenge for 5 mins by turbidimetric method; format: functional, cell-free
[10] = Antiplatelet activity in human platelet-rich plasma assessed as inhibition of arachidonic acid-induced platelet aggregation treated for 5 mins prior to arachidonic acid challenge for 5 mins by turbidimetric method; format: functional, cell-free; conditions: for IC50: Homo sapiens, Platelet, Plasma
Mus musculus [11] = experiment: Antithrombotic activity in mouse assessed as protection against collagen-epinephrine-induced pulmonary thromboembolism at 30 uM/kg, po administered 60 mins prior to thrombotic challenge measured for up to 12 hrs post-drug dose; format: functional, organism-based
[12] = Antiplatelet activity in human platelet-rich plasma assessed as inhibition of collagen-induced platelet aggregation at 10 uM treated for 5 mins prior to collagen challenge for 5 mins by turbidimetric method; format: functional
Platelet [13] = experiment: Antiplatelet activity in human platelet-rich plasma assessed as inhibition of convulxin-induced platelet aggregation treated for 5 mins prior to convulxin challenge for 5 mins by turbidimetric method; format: functional, cell-free
Platelet [14] = experiment: Antiplatelet activity in human platelet-rich plasma assessed as inhibition of CRP-XL-induced platelet aggregation up to 500 uM treated for 5 mins prior to CRP-XL challenge for 5 mins by turbidimetric method; format: functional, cell-free
Mus musculus [15] = experiment: Antithrombotic activity in mouse assessed as protection against collagen-epinephrine-induced pulmonary thromboembolism at 30 uM/kg, po administered 60 mins prior to thrombotic challenge measured for more than 24 hrs post-drug dose; format: functional, organism-based
Mus musculus [16] = experiment: Prolongation of bleeding time in mouse at 30 uM/kg, po administered as single dose by tail excision method relative to control; format: ADME, organism-based; conditions: in vivo
Mus musculus [17] = experiment: Antithrombotic activity in mouse assessed as protection against collagen-epinephrine-induced pulmonary thromboembolism at 30 uM/kg, po administered 60 mins prior to thrombotic challenge measured at >18 hrs post-drug dose; format: functional, organism-based
[18] = Antiplatelet activity in human platelet-rich plasma assessed as inhibition of collagen-induced platelet aggregation at 30 uM treated for 5 mins prior to collagen challenge for 5 mins by turbidimetric method; format: functional
Mus musculus [19] = experiment: Antithrombotic activity in mouse assessed as protection against collagen-epinephrine-induced pulmonary thromboembolism at 30 uM/kg, po administered 60 mins prior to thrombotic challenge measured for up to 18 hrs post-drug dose; format: functional, organism-based
Mus musculus [20] = experiment: Antithrombotic activity in mouse assessed as protection against collagen-epinephrine-induced pulmonary thromboembolism at 170 uM/kg, po administered 60 mins prior to thrombotic challenge; format: functional
Mus musculus [21] = experiment: Prolongation of bleeding time in mouse at 170 uM/kg, po administered as single dose by tail excision method relative to control; format: ADME, organism-based; conditions: in vivo
Mus musculus [22] = experiment: Antithrombotic activity in mouse assessed as protection against collagen-epinephrine-induced pulmonary thromboembolism at 170 uM/kg, po administered 60 mins prior to thrombotic challenge measured for up to 5 hrs post-drug dose; format: functional, organism-based

SMILES	Activity (Mus musculus [1])	IC50 [5]	IC50 [7]	IC50 [10]	inhibition (Platelet [2])	inhibition (Platelet [3])	inhibition (Platelet [4])	inhibition (INH) [5]	inhibition (Platelet [6])	inhibition (INH) [7]	Activity (Mus musculus [8])	inhibition (Platelet [9])	inhibition (INH) [10]	further results
Cc1ccc(CN2C(=O)SC[C@H]2C(=O)N2CCC[C@H](CNC(=O)OC(C)(C)C)C2)cc1	50%	6 µM	10.2 µM	> 100 µM	inactive	inactive	Dose-dependent effect	83%	Dose-dependent effect	64%	50%	inactive	8%	–
Cc1ccc(CN2C(=O)CC[C@H]2C(=O)N2CCC[C@H](CNC(=O)OC(C)(C)C)C2)cc1	–	37 µM	–	–	inactive	inactive	–	–	–	–	50%	inactive	–	Activity (Mus musculus [11]): Active; inhibition at 10 µM [12]: 30%
Cc1ccc(CN2CSC[C@H]2C(=O)N2CCC[C@@H](CNC(=O)OC(C)(C)C)C2)cc1	50%	8 µM	4.7 µM	> 100 µM	inactive	inactive	Dose-dependent effect	74%	Dose-dependent effect	96%	50%	inactive	25%	–
CC(=O)Oc1ccccc1C(=O)O [ASPIRIN]	–	–	–	5 µM	–	–	–	–	–	–	–	–	–	Activity (Mus musculus [20]): 40%; fold change (FC) (Mus musculus [21]): 2.2; Activity (Mus musculus [22]): Active

The remaining compounds from weak to strong by IC50 [5], led by results:

Activity (Mus musculus [1])	IC50 [5]	IC50 [7]	IC50 [10]	SMILES	inhibition (Platelet [2])	inhibition (Platelet [3])	inhibition (Platelet [4])	inhibition (INH) [5]	inhibition (Platelet [6])	inhibition (INH) [7]	Activity (Mus musculus [8])	inhibition (Platelet [9])	inhibition (INH) [10]	further results
50%	16 µM	–	–	Cc1ccc(CN2C(=O)CC[C@H]2C(=O)N2CCCC(CNC(=O)OC(C)(C)C)C2)cc1 (mixture of isomers)	inactive	inactive	–	–	–	–	60%	inactive	–	fold change (FC) (Mus musculus [16]): 1.5; Activity (Mus musculus [17]): inactive; inhibition at 30 µM [18]: 77.3%; Activity (Mus musculus [19]): Active
–	6.6 µM	–	–	Cc1ccc(CN2C(=O)CC[C@H]2C(=O)N2CCC[C@@H](CNC(=O)OC(C)(C)C)C2)cc1	inactive	inactive	–	–	–	–	60%	inactive	–	inhibition (Platelet [13]): inactive; inhibition (Platelet [14]): Active; Activity (Mus musculus [15]): Active; inhibition at 10 µM [12]: 49%
43%	6.4 µM	6.4 µM	> 100 µM	Cc1ccc(CN2C(=O)SC[C@H]2C(=O)N2CCC[C@@H](CNC(=O)OC(C)(C)C)C2)cc1	inactive	inactive	Dose-dependent effect	81%	Dose-dependent effect	75%	40%	inactive	15%	–

— ChEMBL document CHEMBL3259687, “Synthesis and identification of chiral aminomethylpiperidine carboxamides as inhibitor of collagen induced platelet activation” (Eur J Med Chem, 2014)
